Entries after “also recorded” stand apart in the source; their conditions may differ.
Experiments:
[1] = system: differentiated C2C12 myocytes; assay: Glucose uptake assay; format: cell-based; conditions: 500 nM MLN4924 6 h, 100 nM insulin 1 hour
Procedure: Differentiated C2C12 myocytes were treated with MLN4924 (500 nM) and then stimulated with 100 nM insulin as indicated. Glucose uptake into the cells was measured. Glucose uptake into the cells was increased in the presence of MLN4924.Results are mean+/-SD of 5 replicates. “* ”, p less than 0.05, vs Vehicle-treated control.“#”, vs. insulin treated, p less than 0.05.
C2C12 myoblast cells were cultured in DMEM medium supplemented with 10% FBS. When cells grow to 60% confluency, differentiation into myocytes was induced by culturing cells in DMEM supplemented with 2% horse serum for 4-6 days. Cells were then serum starved overnight and treated with 500 nM MLN4924 or DMSO for 6 h and then stimulated with 100 nM insulin for 1 hour as indicated. Glucose uptake was measured with a Glucose uptake Glo^tm assay kit that was purchased from Promega (Madison, WI).

[2] = system: primary mouse hepatocytes; assay: Western blot of insulin signaling in primary mouse hepatocytes; format: cell-based; conditions: 500 nM, 1 h
Procedure: MLN4924 enhances hepatocyte insulin responsiveness by delaying feedback IRS degradation (related to FIG. 18A). Cells were serum starved for 16 h then pre-treated with 500 nM MLN4924 for 1 h followed by 100 nM insulin stimulation in time course. Blots are representative of 2 independent experiments.
AML12 cells were a generous gift from Dr. Yanqiao Zhang (Northeast Ohio Medical University). AML12 cells were cultured in DMEM medium supplemented with a mixture of insulin-transferrin-selenium (#41400-045, ThermoFisher, Waltham, MA). For experiments, cells were cultured in serum free medium overnight before various treatments were initiated. The siGENOME SMARTpool siRNA and siControl were purchased from Dharmacon, Inc. (Lafayette, CO). The siRNA was transfected with Lipofectamine RNAiMAX reagent in a final concentration of 25 nM recommended by the manufacturer. Primary human hepatocytes and primary mouse hepatocytes were obtained from the Cell Isolation Core at the University of Kansas Medical Center. Treatments were initiated on the same day of isolation and completed within 24 hours.

[3] = system: hepatic CRL (cullin) neddylation and hepatic insulin signaling; assay: Western blot of liver lysates after acute MLN4924 injection; format: in vivo; conditions: chow-fed mice, 6 h fast; for hepatic CRL (cullin) neddylation: 60 mg/kg at 5 pm day 1 and 9 am day 2 (IP or SQ)
Procedure: A. Western blot of liver lysates. Chow-fed male C56BL/6J mice were injected with 60 mg/kg MLN4924 or Vehicle (10% 2HO-β-cyclodextrin) at 5 pm on day 1 and 9 am on day 2, and sacrificed at 3 pm after 6 h fast. Upper arrow: Neddylated Cul3; Lower arrow: de-neddylated Cul3. Veh=vehicle; IP=intraperitoneal; SQ=subcutaneous.
FIG. 12A is a Western blot showing that MLN4924 inhibits liver cullin neddylation and increases IRS protein abundance and insulin signaling activation. Chow-fed male C56BL/6J mice were subcutaneously (SQ) injected 60 mg/kg MLN4924 or Veh (10 % 2HO-β-cyclodextrin) at 5 pm on day 1 and 9 am on day 2. Mice were fasted from 9 am to 3 pm on day 2 and sacrificed. Upper and lower arrows indicate neddylated cullin1 and cullin3 bands, respectively.
MLN4924 and TAS4464 were purchased from MedChemExpress (MCE, Monmouth Junction, NJ). For cell treatment, MLN4924 and TAS4464 were dissolved in DMSO. Cells were serum starved overnight and then treated with MLN4924, TAS4464 and/or insulin as indicated. For injection in mice, MLN4924 and TAS4464 were first dissolved in DMSO, which was further suspended in 10% (2-hydroxypropyl)-β-cyclodextrin (Sigma, St. Louis, MO). The final solution contains 1% DMSO. The subcutaneous injection volume is 200 µl/mouse.
Protein lysates were prepared in RIPA buffer containing 1% SDS and protease inhibitors on ice for 1 h followed by brief sonication. After centrifugation, supernatant was used for SDS-PAGE and immunoblotting.
WT male C57BL/6J mice were purchased from the Jackson Lab (Bar Harbor, ME). Western diet (TD. 88137, Envigo Inc. Indianapolis, IN) contains 42% fat calories and 0.2% cholesterol. Mice were housed in micro-isolator cages with corn cob bedding under 7 am - 7 pm light cycle and 7 pm -7 am dark cycle. MLN4924 was prepared in 10% 2-hydroxypropyl-b-cyclodextrin to a final concentration of 3 mg/ml. All mice were fasted for 6 h from 9 am to 3 pm before euthanasia. All animals received humane care according to the criteria outlined in the “Guide for the Care and Use of Laboratory Animals.” All animal protocols were approved by the Institutional Animal Care and Use Committee at the University of Kansas Medical Center and the University of Oklahoma Health Sciences Center.
(§1) Human normal livers (less than 5% steatosis) and histologically confirmed NASH livers were obtained from either the University of Kansas Liver Center or the Liver Tissue Cell Distribution System (LTCDS) at the University of Minnesota. Human and mouse tissue samples were homogenized in 1XRIPA buffer containing 1% SDS and protease inhibitors. After incubation on ice for 1 hour, the samples were centrifugation and supernatant was transferred to a new tube. The protein lysate was mixed with equal volume of 2X laemmli buffer and incubated at 95° C. for 5 minutes and used for SDS-PAGE and immunoblotting. ImageJ software (NIH) was used to determine band intensity.
(§2) To further explore the hepatic insulin sensitizing effect of neddylation inhibition in vivo, we administered MLN4924 to chow-fed mice twice via subcutaneous (SQ) injection (5 pm on day 1 and 9 am on day 2) and studied the acute effect of MLN4924. The dose of 60 mg/kg is in line with published literature. […] In addition to liver, skeletal muscle is another organ that quantitatively contribute to plasma glucose homeostasis.

[4] = system: skeletal muscle cullin neddylation and AKT phosphorylation; assay: Western blot of gastrocnemius (skeletal) muscle after acute MLN4924; format: in vivo, mice; conditions: chow diet; 60 mg/kg SQ twice
Procedure: Male C57BL/6J mice on chow diet were treated with 60 mg/kg MLN6924 via subcutaneous (SQ) injection at 5 pm on day 1 and 9 am on day 2. Mice were fasted from 9 am to 3 pm on day 2 and sacrificed. Effect of MLN4924 on gastrocnemius muscle cullin neddylation and AKT phosphorylation was measured by Western blotting.
as §1, §2

NS(=O)(=O)OC[C@@H]1C[C@@H](n2ccc3c(N[C@H]4CCc5ccccc54)ncnc32)C[C@@H]1O [MLN4924, ((1S,2S,4R)-4-(4-((1S)-2,3-dihydro-1H-inden-1-ylamino)-7H-pyrrolo[2,3-d]pyrimidin-7-yl)-2-hydroxycyclopentyl) methyl sulfamate]
glucose uptake [1]: increased glucose uptake | IRS protein abundance ([2]; then 100 nM insulin): increased IRS protein abundance | insulin-stimulated AKT activation ([2]; then 100 nM insulin): increased IRS protein abundance and insulin-stimulated AKT activation | insulin signaling desensitization ([2]; then 100 nM insulin in time course): significantly delayed cellular insulin desensitization; also recorded: significantly delayed insulin signaling desensitization | hepatic CRL (cullin) neddylation ([3]; 60 mg/kg): effectively reduced hepatic CRL neddylation | hepatic CRL (cullin) neddylation ([3]; listed as MLN4924, 60 mg/kg): effectively reduced hepatic cullin neddylation | hepatic Y612 phosphorylated IRS1 ([3]; 60 mg/kg twice): increased Y612 phosphorylated IRS1 | hepatic IRS1 and IRS2 protein ([3]; 60 mg/kg twice, 60 mg/kg): rapidly increased hepatic IRS1 and IRS2; also recorded: increased hepatic IRS proteins | hepatic phosphorylated AKT ([3]; 60 mg/kg twice, 60 mg/kg): higher phosphorylated AKT; also recorded: increased hepatic IRS proteins and AKT phosphorylation | increase of AKT phosphorylation in skeletal muscle [4]: did not | increase of IRS protein abundance in skeletal muscle [4]: did not | inhibition of cullin neddylation in skeletal muscle [4]: did not inhibit cullin neddylation

From patent US20230218654A1, “COMPOSITIONS AND METHODS FOR TREATING HYPERGLYCEMIA IN TYPE-2 DIABETES” (The Board of Regents of the university of Oklahoma, priority 2020, published 2023)
